Test results published in patent US12414969B2, “Methods and compositions for reducing clostridium difficile infection” (priority 2014, dated 2025).

Tested on: C. difficile
Experiment: Addition of secondary bile acids to culture media, C. difficile growth
Details: bile acid added to culture media

In the case of `C[C@H](CCC(=O)O)[C@H]1CC[C@H]2[C@@H]3CC[C@@H]4C[C@H](O)CC[C@]4(C)[C@H]3C[C@H](O)[C@]12C` [DCA, deoxycholic acid], the “C. difficile growth inhibition in culture media” value is reported as “inhibits c. difficile growth”.
